Reference: PubChem BioAssay (NCI)
Where “and” joins values, the source holds several entries; their conditions need not be identical. Identical values can stand only once.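 Assay format: 96-well plates, 48-hour exposure. Here, GI50 denotes the concentration required for 50% inhibition of growth. TGI marks complete inhibition of growth.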

What was measured:
Experiment in all cases: inhibition of tumour cell growth, NCI panel, 48 h
[1] = system: 786-0 renal
[2] = system: DMS 114 small cell lung
[3] = system: HOP-18 NSCLC
[4] = system: HT29 colon
[5] = system: M19-MEL melanoma
[6] = system: MDA-MB-435
[7] = system: NCI-H522 lung
[8] = system: PC-3 prostate
[9] = system: SNB-75 CNS
[10] = system: SNB-78 CNS
[11] = system: T-47D breast
[12] = system: UACC-62 melanoma

| SMILES | GI50 [1] | TGI [1] | TGI [2] | TGI [3] | GI50 [4] | TGI [4] | TGI [5] | GI50 [6] | TGI [6] | GI50 [7] | TGI [7] | GI50 [8] | TGI [8] | GI50 [9] | TGI [9] | TGI [10] | GI50 [11] | TGI [11] | GI50 [12] | TGI [12] |
| --- | --- | --- | --- | --- | --- | --- | --- | --- | --- | --- | --- | --- | --- | --- | --- | --- | --- | --- | --- | --- |
| [N-]=[N+]=CC(=O)CCC(N)C(=O)O (configuration not stated) | 7.17 µM | > 250 µM | 95.5 µM | > 250 µM | 0.727 µM | 75.7 µM | > 138 µM | 7.2 µM | > 250 µM | 0.963 µM | > 149 µM | 29.8 µM | > 250 µM | 39.4 µM | 191 µM | > 74.4 µM | 16.2 µM | > 250 µM | 3.82 µM | > 147 µM |
| Cc1nnc2n1N=C(c1ccccc1)C(c1ccccc1)S2 (configuration not stated) | – | > 100 µM | 52.4 µM | > 100 µM | – | > 100 µM | > 100 µM | – | – | – | 57.7 µM | – | – | – | 79.7 µM | > 100 µM | – | – | – | > 100 µM |
| c1ccc2c(c1)[nH]c1c2nc2ccccn21 | – | > 100 µM | > 100 µM | > 100 µM | – | > 100 µM | > 100 µM | – | – | – | > 100 µM | – | – | 45.6 µM and > 100 µM | > 100 µM | > 100 µM | – | – | – | > 100 µM |
| Cn1c(=O)oc2cc(C3CCC(=O)N3Cc3csc(-c4ccccc4)n3)ccc21 (configuration not stated) | – | > 100 µM | > 100 µM | > 100 µM | – | > 100 µM | > 100 µM | – | – | – | > 100 µM | – | – | – | > 100 µM | > 100 µM | – | – | – | > 100 µM |
| CN1CCCC2[C@@H]3CCC4c5nonc5CC[C@]4(C)C3CC[C@@]21C (some centres not stated) | – | > 100 µM | > 100 µM | > 100 µM | – | > 100 µM | > 100 µM | – | – | – | > 100 µM | – | – | – | > 100 µM | > 100 µM | – | – | – | > 100 µM |
